According to ChEMBL document CHEMBL2380234, “Natural sesquiterpene lactones as inhibitors of Myb-dependent gene expression: structure-activity relationships” (Eur J Med Chem, 2013):

Experiment: Cytotoxicity against chicken HD11 cells assessed as cell viability after 24 hrs by MTS assay
Type: ADME, cell-based
Conditions: Gallus gallus, HD11, 24 h

SMILES	IC50 [µM]
C=C1C(=O)O[C@H]2C[C@H](C)[C@@H]3CC[C@@]4(C)O[C@@]34C[C@H]12	> 30
C=C1C[C@H](O)C[C@]2(C)C[C@H]3OC(=O)[C@@H](C)[C@H]3C[C@@H]12	> 30
C=C1C(=O)O[C@@H]2/C=C(\C)CC[C@H]3O[C@]3(COC(C)=O)C[C@@H](OC(=O)C3(C)OC3C)[C@@H]12 (stereo partly drawn)	25.5
C=C1C(=O)O[C@@H]2/C=C(/C)[C@@H](OC(C)=O)C[C@H]3O[C@]3(O)C[C@@H](OC(=O)/C(C)=C\C)[C@@H]12	> 30
C=C1C(=O)O[C@@H]2/C=C(/CO)C[C@H](O)/C=C(/C(=O)OC)[C@@H](OC(C)=O)[C@@H](OC(=O)C(C)C)[C@@H]12	24.8
C=C1C(=O)O[C@H]2[C@H]1[C@H](OC(=O)[C@]1(C)O[C@@H]1C)[C@@H](OC(C)=O)/C(C(=O)OC)=C\C=C/[C@@]1(C)O[C@H]21	28
C=C1C(=O)O[C@@H]2/C=C(\C)CC/C=C(/C(=O)OC)[C@H](OC(C)=O)[C@@H](OC(=O)C(C)(O)C(C)O)[C@@H]12 (stereo partly drawn)	> 30
C=C1C[C@H]2OC(=O)C(=C)[C@@H]2[C@H](OC(=O)C(C)C)C[C@@]2(C)OC1=CC2=O	25.2
C=C(C)C(=O)O[C@@H]1C[C@@]2(C)OC(=CC2=O)C(=C)C[C@H]2OC(=O)C(=C)[C@H]12	10.4
C=C1C[C@H]2OC(=O)C(=C)[C@@H]2[C@H](OC(=O)/C(C)=C/C)C[C@@]2(C)OC1=CC2=O	12.1
C=C1C(=O)O[C@@H]2C[C@H](C)C(/C=C/C(C)=O)=CC[C@H]12	> 30
C=C1C(=O)O[C@@H]2C[C@H](C)[C@]3(/C=C/C(C)=O)O[C@@H]3C[C@H]12	> 30
C=C1C(=O)O[C@@H]2C[C@H](C)[C@@]3(O)C=C(C(C)=O)[C@@]4(O[C@@H]3C[C@H]12)C(=O)O[C@H]1C[C@@H](C)C(/C=C/C(C)=O)=CC[C@H]14	> 30
C=C1C(=O)O[C@@H]2C[C@H](C)[C@@]3(O)C=C(C(C)=O)[C@@]4(O[C@@H]3C[C@H]12)C(=O)O[C@H]1C[C@@H](C)[C@]2(/C=C/C(C)=O)O[C@@H]2C[C@H]14	> 30
C=C1C(=O)O[C@@H]2[C@H]3O[C@]3(C)CC/C=C(\C)[C@@H](OC(=O)CC3(C)OC3C)C[C@@H]12 (stereo partly drawn)	22.2
C=C1C(=O)O[C@H]2[C@H]1[C@H](OC(C)=O)C/C(C)=C/CC[C@@]1(C)O[C@@H]21	> 30
C=C1C(=O)O[C@@H]2/C=C(\C)CC[C@H]3O[C@]3(CO)C[C@@H](OC(=O)C3(C)OC3C)[C@@H]12 (stereo partly drawn)	> 30
C=C1C(=O)O[C@@H]2C[C@@H](C)[C@@H]3[C@@H](OC(C)=O)C[C@@H](OC(C)=O)[C@@]3(C)[C@@H](OC(C)=O)[C@H]12	> 30
C=C1C(=O)O[C@@H]2C[C@@H](C)[C@@H]3[C@@H](OC(C)=O)C[C@@H](OC(C)=O)[C@@]3(C)C[C@H]12	> 30
C=C1C(=O)O[C@@H]2C[C@@H](C)[C@@H]3[C@@H](OC(C)=O)C[C@@H](O)[C@@]3(OC(C)=O)C[C@H]12	> 30

SMILES	IC50 [µM]
C=C1C(=O)O[C@@H]2C[C@@H](C)[C@@H]3CCC(=O)[C@@]3(C)C[C@H]12	> 30
C=C1C(=O)O[C@@H]2C[C@@H](C)[C@@H]3[C@@H](OC(C)=O)C[C@@H](O)[C@@]3(C)C[C@H]12	> 30
CC(=O)O[C@H]1[C@@H]2[C@H](C)C(=O)O[C@@H]2C[C@@H](C)[C@@H]2C=CC(=O)[C@]21C	21
C=C1C(=O)O[C@@H]2C3O[C@]3(C)CC/C=C(\C)CC[C@@H]12 (stereo partly drawn)	> 30
CC(C)CC(=O)O[C@H]1[C@@H]2[C@H](C)C(=O)O[C@@H]2C[C@@H](C)[C@@H]2C=CC(=O)[C@]21C	> 30
C=C1C(=O)O[C@@H]2C[C@@H](C)[C@@H]3[C@@H](O)C[C@@H](OC(=O)/C(C)=C/C)[C@@]3(C)[C@@H](O)[C@H]12	> 30
C=C1C(=O)O[C@@H]2[C@H]3O[C@]3(C)CC/C=C(\C)[C@@H](OC(=O)C(C)C(C)O)C[C@@H]12 (stereo partly drawn)	> 30
C=C1C(=O)O[C@@H]2[C@H]3O[C@]3(C)CC/C=C(\C)[C@@H](OC(=O)CC(C)(C)O)C[C@@H]12	> 30
C=C1C(=O)O[C@@H]2C[C@@H](C)[C@@H]3[C@@H](O)C[C@@H](O)[C@@]3(C)C[C@H]12	> 30
C=C1C(=O)O[C@@H]2C[C@@]3(C)CC(=O)C[C@H](C)C3=C[C@H]12 [2-OXOALANTOLACTONE]	> 30
C/C1=C\CC[C@@]2(C)O[C@@H]2[C@H]2OC(=O)[C@@H](C)[C@@H]2CC1 [11BETA,13-DIHYDRO-PARTHENOLIDE]	> 30
C=C1C(=O)O[C@@H]2C[C@@H](C)[C@@H]3C=CC(=O)[C@@]3(C)[C@@H](OC(C)=O)[C@H]12 [ANGUSTIBALIN]	7.34
C=C1C(=O)O[C@@H]2[C@H]3C(C)=CC[C@@]34O[C@@]4(C)CC[C@@H]12 [ARGLABIN]	> 30
C=C1C(=O)O[C@@H]2C[C@@H](C)C(=O)C/C=C(\C)CC[C@@H]12 [ARGOLIDE]	> 30
C=C1C(=O)O[C@@H]2C[C@@H](C)[C@@H]3[C@@H](O)CC(=O)[C@@]3(C)[C@@H](OC(=O)/C(C)=C/C)[C@H]12 [ARNIFOLIN]	> 30
C=C1C(=O)O[C@@H]2/C=C(/CO)C3=CC(=O)[C@@](C)(C[C@@H](OC(=O)/C(C)=C/C)[C@@H]12)O3 [BUDLEIN A]	9
C=C1C(=O)O[C@@H]2C[C@]3(C)[C@@H](CCC(C)=O)[C@]3(C)C[C@H]12 [CARABRONE]	> 30
C=C1C(=O)O[C@@H]2C[C@@H](C)[C@@H]3[C@@H](OC(C)=O)C[C@@H](O)[C@@]3(C)[C@@H](O)[C@H]12 [CHAMISSONOLIDE]	> 30
C=C1C(=O)O[C@@H]2/C=C(\CO)CC/C=C(\C)C[C@H](OC(=O)C(=C)[C@H](O)CO)[C@@H]12 [CNICIN]	> 30
C=C1C(=O)O[C@@H]2/C=C(\C)CC/C=C(\C)CC[C@@H]12 [COSTUNOLIDE]	> 30

SMILES	IC50 [µM]
C=C1CC[C@H]2C(=C)CC[C@H]3C(=C)C(=O)O[C@@H]3[C@@H]12 [DEHYDROCOSTUSLACTONE]	> 30
C=C1C(=O)O[C@@H]2[C@H]3C(C)=CC[C@H](O)[C@]3(C)CC[C@@H]12 [DOUGLANIN]	> 30
C=C1C(=O)O[C@H]2[C@H]1[C@H](OC(=O)[C@@]1(C)O[C@H]1C)[C@@H](OC(C)=O)/C(C(=O)OC)=C\CC[C@@]1(C)O[C@H]21 [ENHYDRIN]	7.49
C=C1C(=O)O[C@@H]2/C=C(/C)[C@@H](O)C[C@H]3O[C@]3(C)C[C@@H](OC(=O)/C(C)=C\C)[C@@H]12 [EPOXYNOBILIN]	> 30
C=C(C)C(=O)O[C@H]1C[C@@]2(C)OC(=CC2=O)/C(CO)=C\[C@H]2OC(=O)C(=C)[C@H]12 [GOIAZENSOLIDE]	10.1
C=C1C(=O)O[C@@H]2C[C@@H](C)[C@@H]3C=CC(=O)[C@@]3(C)[C@@H](OC(=O)C(C)C)[C@H]12 [HELENALINISOBUTYRATE]	> 30
C=C1C(=O)O[C@@H]2C[C@@H](C)[C@@H]3C=CC(=O)[C@@]3(C)[C@@H](O)[C@H]12 [HELENALIN]	21.1
C=C1C(=O)O[C@@H]2C[C@@]3(C)CCC[C@H](C)C3=C[C@H]12 [HELENINE]	> 30
C=C1C(=O)O[C@@H]2C[C@@]3(C)CCCC(=C)[C@@H]3C[C@H]12 [ISOALANTOLACTONE]	> 30
C=C1C(=O)O[C@@H]2C[C@@]3(C)C[C@@H](O)CC(=C)[C@@H]3C[C@H]12 [IVALIN]	> 30
C=C1C(=O)O[C@H]2C[C@@H](C)[C@@H]3C=CC(=O)[C@@]3(C)[C@H](O)[C@H]12 [MEXICANIN I]	21.1
C=C1C(=O)O[C@@H]2/C=C(/C)[C@@H](O)C/C=C(\C)C[C@H](OC(=O)/C(C)=C\C)[C@@H]12 [NOBILIN]	> 30
C=C(CO)C(=O)O[C@H]1C/C(C)=C\CC/C(CO)=C\[C@H]2OC(=O)C(=C)[C@H]12 [ONOPORDOPICRIN]	> 30
C=C1C(=O)O[C@@H]2C[C@H](C)[C@]3(O)CCC(=O)[C@@]3(C)C[C@H]12 [PERUVIN]	> 30
C=C1C(=O)O[C@@H]2[C@H]1CC[C@H](C)[C@]1(CCC(=O)O1)[C@@]2(C)O [PSILOSTACHYIN A]	> 30
C=C1C(=O)O[C@@H]2/C=C(/C)[C@@H](O)C[C@H]3O[C@]3(COC(C)=O)C[C@@H](OC(=O)/C(C)=C\C)[C@@H]12 [ROTUNDIN]	> 30
C=C1C(=O)O[C@@H]2/C=C(/C)C(=O)/C=C/[C@](C)(O)C[C@@H](OC(=O)C(C)C)[C@@H]12 [TAGITININ C]	30.9
C=C1C(=O)O[C@@H]2/C=C(\C)CC/C=C(/C(=O)OC)[C@H](OC(C)=O)[C@@H](OC(=O)[C@]3(C)O[C@@H]3C)[C@@H]12 [UVEDALIN]	11.4
